In patent publication US7691624B2, “Cancer cell detecting devices” (Academia Sinica, priority 2003, dated 2010):

Experiments:
MRC-5 normal cells = assay: Fluorescence of stained cells in eppendorf under LED, recorded by camera; format: cell-based, human; details: for Numbers of cells required to distinguish cancer cells and normal cells: Normal cells (M) MRC-5
Method: (§1) Human lung CL1-0 cancer cells or MRC-5 normal cells were incubated with 0.5 μM of Compound 2 and acridine orange (AO). After incubation in standard culture medium for 1 hour, the non-fixed cells were removed by washing the culture three times with phosphate buffered saline (PBS). The fixed cells were collected in an eppendorf by trypsinization. The eppendorf was centrifuged and then illuminated by an light emitting diode (LED) emitting excitation light with a center wavelength at 470 nm. A conventional digital camera was used to record the fluorescence. Table 1 summarizes the numbers of cells required to distinguish cancer cells from normal cells based on fluorescence emission of Compound 2 and AO recorded by a camera under different experimental conditions. Specifically, Compound 2 and AO were incubated with four different cells in eppendorf, i.e., MRC-5 normal cells, primary fibroblast, CL1-0 cancer cells, and HeLa cancer cells.

CL1-0 cancer cells [1] = assay: as above; format: cell-based, human; details: for Numbers of cells required to distinguish cancer cells and normal cells: Cancer cells (C) CL1-0
Method: as §1

CL1-0 cancer cells [2] = assay: Stained cells spread onto cover slip, fluorescent cells counted; format: cell-based; details: 0.02 μM AO, 5 minutes, cover slip, LED
Method: Further, the role of the ratio of the cells stained by Compound 2/AO in cancer diagnosis was studied. Specifically, CL1-0 cancer cells, NIH3T3 normal cells, and their 1:10 mixture were respectively stained with 0.02 μM AO and 1.5 μM Compound 2 for 5 minutes in eppendorfs. Each sample was then taken from the eppendorf and spread onto a cover slip. Fluorescence emissions were recorded by a color camera upon an LED illumination. […] A statistical histogram of the ratio of the cell stained with Compound 2/AO to the ratio of the CL1-0 cells to the sum of NIH3T3 and CL1-0 cells was plotted. Each spot on the histogram represented an average of 5-10 measurements from a single sample.

primary fibroblast = assay: Fluorescence of stained cells in eppendorf under LED, recorded by camera; format: cell-based; details: Normal cells (F) primary fibroblast
Method: as §1

HeLa cancer cells = assay: as above; format: cell-based; details: Cancer cells (H) HeLa
Method: as §1

Hum24 quadruplex = assay: Temperature-dependent CD analysis; format: binding, human
Source text: Eight DNA quadruplexes and their complexes with compound 2 were subjected to CD analysis. CD spectra were averaged 10 scans on a Jasco J-715 spectropolarimeter with a 2 nm bandwidth. The scan speed was 50 nm/min and the step resolution was 0.2 nm.
Further, Hum24 and its complexes with compounds 2, 4, 6, and 8 were subjected to temperature-dependent CD analysis.

[3] = Fluorescence analysis in aqueous solution; format: physicochemical; details: λex≈430 nm, no DNA
Method: (§2) Compound 2 was mixed with eleven DNAs and subjected to fluorescence analysis at λex≈430 nm, using a Hitachi F4010 spectrofluorimeter with a 2 nm bandwidth in a 1-cm cell. Fluorescence analysis was also carried out for compound 4 in the presence of Hum24. […] Further, the fluorescence peaks for a complex of compound 2 and a DNA duplex and a complex of compound 2 and a DNA quadruplex were at ˜550 nm and ˜575 nm, respectively.

DNA = assay: Fluorescence analysis in the presence of a DNA; format: binding; details: λex≈430 nm; compound 2 with eleven DNAs, compound 4 with Hum24
Method: as §2

Question: Which results are given for `CN(C)c1ccc2cc3ccc(N(C)C)cc3nc2c1` [AO, acridine orange, reference compound]?
Answer: fluorescence emission in eppendorf (MRC-5 normal cells; 0.5 μM, 1 hour, LED 470 nm): fluorescence emission was detected; Numbers of cells required to distinguish cancer cells and normal cells (MRC-5 normal cells; 0.1 μM/30 min): 3,000 (M); Numbers of cells required to distinguish cancer cells and normal cells (MRC-5 normal cells; 0.5 μM/1 hr): 2,000 (M); fluorescence emission in eppendorf (CL1-0 cancer cells [1]; 0.5 μM, 1 hour, LED 470 nm): fluorescence emission was detected; Numbers of cells required to distinguish cancer cells and normal cells (CL1-0 cancer cells [1]; 0.1 μM/30 min): 2,000 (C); Numbers of cells required to distinguish cancer cells and normal cells (CL1-0 cancer cells [1]; 0.5 μM/1 hr): 1,000 (C); number of stained cells showing fluorescence (CL1-0 cancer cells [2]): 150; Numbers of cells required to distinguish cancer cells and normal cells (primary fibroblast; 0.05 μM/1 hr): 4,000 (F); Numbers of cells required to distinguish cancer cells and normal cells (primary fibroblast; 0.1 μM/1 hr): 2,000 (F); Numbers of cells required to distinguish cancer cells and normal cells (HeLa cancer cells; 0.05 μM/1 hr): 3,000 (H); Numbers of cells required to distinguish cancer cells and normal cells (HeLa cancer cells; 0.1 μM/1 hr): 2,000 (H)

Question: Which “melting temperature of Hum24 quadruplex in the presence of compound” value (“melting temperature of Hum24 quadruplex” below) (Hum24 quadruplex) does the source give for `C[n+]1ccccc1C=Cc1ccc2[nH]c3ccc(C=Cc4cccc[n+]4C)cc3c2c1.[I-].[I-]` [Compound 4, 3,6-bis-(2-(1-methylpyridinium-2-yl)-vinyl)-9H-carbazole diiodide] here?
Answer: increased

Question: What about the “fluorescence in an aqueous solution” value [3] of the same molecule?
Answer: weak

Question: What about the “increase of fluorescence intensity in the presence of a DNA” value (DNA) of the same molecule?
Answer: two orders of magnitude

Question: With `C[n+]1ccnc(C=Cc2ccc3[nH]c4ccc(C=Cc5c[n+](C)ccn5)cc4c3c2)c1.[I-].[I-]` [Compound 6, 3,6-bis-(2-(4-methylpyrazin-4-ium-2-yl)-vinyl)-9H-carbazole diiodide] as the molecule, how does the “melting temperature of Hum24 quadruplex” value (Hum24 quadruplex) read?
Answer: increased

Question: Which “melting temperature of Hum24 quadruplex” value (Hum24 quadruplex) does the source give for `C[n+]1ccc(C=Nc2ccc3[nH]c4ccc(N=Cc5cc[n+](C)cc5)cc4c3c2)cc1.[I-].[I-]` [Compound 8, N,N′-bis-((1-methylpyridinium-4-yl)methylidene)-9H-carbazole-3,6-diamine diiodide] here?
Answer: increased
